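Where inhibition never reached the appropriate level, the endpoint shown equals the highest concentration tested. Otherwise, values were interpolated linearly from a five-concentration, 48-hour dose response in 96-well plates. At the GI50, growth is halved. TGI marks complete inhibition of growth.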
Legend:
Experiment in all cases: DTP human tumour cell line panel, 48 h
SW-620 colon = system: SW-620 colon
T-47D breast = system: T-47D breast
OVCAR-8 ovarian = system: OVCAR-8 ovarian
SK-MEL-5 melanoma = system: SK-MEL-5 melanoma
OVCAR-4 ovarian = system: OVCAR-4 ovarian
PC-3 prostate = system: PC-3 prostate
HS 578T breast = system: HS 578T breast
HL-60(TB) leukemia = system: HL-60(TB) leukemia
HOP-92 NSCLC = system: HOP-92 NSCLC
EKVX NSCLC = system: EKVX NSCLC

| Structure (SMILES) | TGI (SW-620 colon) [µM] | TGI (T-47D breast) [µM] | TGI (OVCAR-8 ovarian) [µM] | TGI (SK-MEL-5 melanoma) [µM] | TGI (OVCAR-4 ovarian) [µM] | TGI (PC-3 prostate) [µM] | TGI (HS 578T breast) [µM] | TGI (HL-60(TB) leukemia) [µM] | TGI (HOP-92 NSCLC) [µM] | TGI (EKVX NSCLC) [µM] | GI50 (SW-620 colon) [µM] | GI50 (T-47D breast) [µM] | GI50 (OVCAR-8 ovarian) [µM] | GI50 (SK-MEL-5 melanoma) [µM] | GI50 (OVCAR-4 ovarian) [µM] | GI50 (PC-3 prostate) [µM] | GI50 (HOP-92 NSCLC) [µM] | GI50 (EKVX NSCLC) [µM] | GI50 (HS 578T breast) [µM] |
| --- | --- | --- | --- | --- | --- | --- | --- | --- | --- | --- | --- | --- | --- | --- | --- | --- | --- | --- | --- |
| COP(=O)(OC)C(N)Cc1c[nH]c2ccccc12 (stereo unspecified) | > 100 | > 100 | > 100 | > 100 | > 100 | > 100 | > 100 |  |  |  |  |  |  |  |  |  |  |  |  |
| O=C(NC(=S)Nc1ccc(Br)cc1)c1ccc2c(c1)Sc1ccccc1O2 | > 100 | > 100 | > 100 | > 100 |  | > 100 | > 100 | > 100 | 74.9 |  |  |  |  |  |  |  |  |  |  |
| COc1ccc2c(c1OC)C(=O)C2 | > 100 |  | > 100 | > 100 | > 100 |  |  | > 100 |  | > 100 |  |  |  |  |  |  |  |  |  |
| O=C1OC(C(O)CO)C(C(O)CO)OC1=O (stereo unspecified) | > 10 | > 10 | > 10 | > 10 | > 10 | > 10 | > 10 | > 10 |  | > 10 |  |  |  |  |  |  |  |  |  |
| CS(=O)(=O)OCCN(CCOS(C)(=O)=O)c1ccc(C=Nc2ccc(-c3csc(Cc4ccccc4)n3)cc2)c(Cl)c1 | > 100 | > 84.2 | > 66 | 40.2 | > 100 | > 79.8 | 76.7 | 35.7 | 46.5 | > 100 |  |  |  |  |  |  |  |  |  |
| O=C(N/N=C\c1ccc(Cl)cc1)Nc1ccc2ccccc2c1 | > 100 | > 100 | 73.2 | > 100 | 39.2 | > 100 | 76.9 |  | 77.7 | > 100 |  |  |  |  |  |  |  |  |  |
| O=C1C=C(NCCc2ccc(O)c([N+](=O)[O-])c2)C(=O)c2[nH]cnc21 | > 100 | 40.7 | 68.7 | 30.3 |  | > 100 | > 100 | 47.8 |  | 72.2 |  |  |  |  |  |  |  |  |  |
| CC(O)C(CO)NC(=O)C1CSSCC(NC(=O)C(N)Cc2ccccc2)C(=O)NC(Cc2ccccc2)C(=O)NC(Cc2c[nH]c3ccccc23)C(=O)NC(CCCCN)C(=O)NC(C(C)O)C(=O)N1 (stereo unspecified) | > 100 | > 100 | > 100 | > 100 | > 100 | > 100 |  | > 100 | > 100 | > 100 |  |  |  |  |  |  |  |  |  |
| O=C1/C(=C/c2cccc([N+](=O)[O-])c2)N=C(c2ccccc2)N1c1nc2ccc(Sc3ccccc3)cc2[nH]1 | > 100 | > 100 | > 100 | > 100 | > 100 | > 100 | > 100 |  | > 100 | > 100 |  |  |  |  |  |  |  |  |  |
| COc1ccc(C2CC(c3sc(Nc4ccc(C)cc4)nc3C)=NN2)cc1 (stereo unspecified) | 38.2 |  | 35.9 | 30.1 | 18.3 |  |  | 24.6 | 30.3 | 47.8 |  |  |  |  |  |  |  |  |  |
| O=C(Nc1ccccc1C(=O)NCc1ccccc1)/C(=C/c1ccccc1O)NC(=O)c1ccccc1 | > 100 | > 100 | > 100 | > 100 |  | > 100 | > 100 | > 100 | > 100 | > 100 |  |  |  |  |  |  |  |  |  |
| CCCCn1c(=O)[nH]c2c(N)ncnc21 | > 100 |  | > 100 | > 100 | > 100 | > 100 | > 100 | > 100 | > 100 | > 100 |  |  |  |  |  |  |  |  |  |
| COc1cc2ncnc(NS(=O)(=O)c3cc4ccccc4s3)c2cc1OC | > 100 | > 100 | > 100 | > 100 | > 100 | > 100 | > 100 |  | > 100 | > 100 |  |  |  |  |  |  |  |  |  |
| O=C(COc1cc(=O)oc2ccccc12)c1ccccc1 | > 100 | > 100 | 93.8 | > 100 | > 100 |  | 73.7 | > 100 | 33 | > 100 |  |  |  |  |  |  |  |  |  |
| Nc1nnc(N)n1N | > 100 |  |  | > 100 | > 100 |  |  | > 100 | > 100 | > 100 |  |  |  |  |  |  |  |  |  |
| CC1=NNC(=O)C1C1(C(=O)O)CC(c2c[nH]c3ccccc23)=NC(=S)N1 (stereo unspecified) | > 100 | > 100 | > 100 | 27.5 |  | > 100 | 47.7 | 90.1 | > 100 | > 100 |  |  |  |  |  |  |  |  |  |
| CN(C)N1C(=O)C(=O)N(c2cccc3ccccc23)C1=O | > 10 | > 10 | > 10 | > 10 | > 10 | > 10 | > 10 | > 10 |  | > 10 |  |  |  |  |  |  |  |  |  |
| O=C(CC(C(=O)c1ccsc1)c1cccs1)c1ccccc1 (stereo unspecified) | > 100 | 33.7 | > 100 | > 100 | 67.3 |  | > 100 | > 100 | > 100 | > 100 |  |  |  |  |  |  |  |  |  |

| Structure (SMILES) | TGI (SW-620 colon) [µM] | TGI (T-47D breast) [µM] | TGI (OVCAR-8 ovarian) [µM] | TGI (SK-MEL-5 melanoma) [µM] | TGI (OVCAR-4 ovarian) [µM] | TGI (PC-3 prostate) [µM] | TGI (HS 578T breast) [µM] | TGI (HL-60(TB) leukemia) [µM] | TGI (HOP-92 NSCLC) [µM] | TGI (EKVX NSCLC) [µM] | GI50 (SW-620 colon) [µM] | GI50 (T-47D breast) [µM] | GI50 (OVCAR-8 ovarian) [µM] | GI50 (SK-MEL-5 melanoma) [µM] | GI50 (OVCAR-4 ovarian) [µM] | GI50 (PC-3 prostate) [µM] | GI50 (HOP-92 NSCLC) [µM] | GI50 (EKVX NSCLC) [µM] | GI50 (HS 578T breast) [µM] |
| --- | --- | --- | --- | --- | --- | --- | --- | --- | --- | --- | --- | --- | --- | --- | --- | --- | --- | --- | --- |
| Cc1nc2c(Cl)cc(Cl)cc2c2c1CCO2 | > 100 | > 100 | > 100 | > 100 | > 100 |  | > 100 | > 100 | > 100 | > 100 |  |  |  |  |  |  |  |  |  |
| O=C1CCCC2=C1CC1=C(CCCC1=O)N2c1ccc(Cl)cc1 | > 100 |  | > 100 | > 100 | > 100 | > 100 | > 100 | > 100 |  | > 100 |  |  |  |  |  |  |  |  |  |
| NCCCn1c(Cl)nc2ccccc21 | > 100 | > 100 | > 100 | > 100 | > 100 | > 100 | > 100 | > 100 |  | > 100 |  |  |  |  |  |  |  |  |  |
| O=C1c2c(c3c4cc(F)ccc4oc3c3[nH]c4ccccc4c23)C(=O)N1O | > 100 | > 100 | > 100 | 2.6 | > 100 | > 100 | 9.59 |  | 5.15 | 65.8 | 1.24 | 1.59 | 1.82 | 1.23 | 4.82 | 1.35 | 1.44 | 6.85 | 2.53 |
| CC1=C(C)C(=O)OC(C(C)(O)C2(O)CC3OC34C3CC(O)C56OC5C=CC(=O)C6(C)C3CCC42C)C1 (stereo unspecified) |  | > 43.3 | 6.67 | > 24.1 | 20.3 | 14.2 | 16.3 |  | 12 | 10.4 |  |  |  |  |  |  |  |  |  |
| CCOC(=O)NC(Nc1ccc(F)cc1F)(C(F)(F)F)C(F)(F)F | > 100 | > 100 | > 100 | > 100 |  | > 100 | > 100 | > 100 | > 100 | > 100 |  |  |  |  |  |  |  |  |  |
| Nc1cc(CO)cc(Nc2c3ccccc3nc3ccccc23)c1 | 26 | 34.4 | 29.5 | 30.8 | 29.7 | 36 | 67.8 | > 100 |  | 31.8 |  |  |  |  |  |  |  |  |  |
| CCN(CC)Cc1cc(N=Nc2c(O)ccc3c(N=Nc4ccc(O)c(CN(CC)CC)c4)c(O)ccc23)ccc1O | 15.2 | 32.7 | 5.27 | 7.42 | 7.21 | > 41.1 | > 38.7 |  | 22.8 | 21.2 |  |  |  |  |  |  |  |  |  |
| COc1ccc(C2=C(OC(C)=O)c3cccn3-c3ccc(Cl)cc3S2)cc1 | > 10 | > 10 | > 10 | > 10 | > 10 | > 10 |  | 3.02 | 6.07 | > 10 |  |  |  |  |  |  |  |  |  |
| CC(C#N)(NO)C(C)(C#N)NO (stereo unspecified) | > 100 | > 100 | > 100 | > 100 | > 100 | > 100 | > 100 | > 100 |  | > 100 |  |  |  |  |  |  |  |  |  |
| CCOC(=O)/C(C(N)=O)=C(\O)C(=O)/C=C(\O)c1ccc(Cl)cc1 | 50.1 | 47.9 | 31.7 | 36.8 | > 100 | 38.1 | > 100 |  | 53.9 | 58.3 |  |  |  |  |  |  |  |  |  |
| COc1ccc(N2C(=O)C3ON(Cc4ccc(CC(N)=O)cc4)C(c4c5ccccc5c(C)c5ccccc45)C3C2=O)cc1 (stereo unspecified) | > 100 | 80.1 | > 100 |  | 96.5 | > 100 | > 100 | 51.2 | > 100 | 54.9 |  |  |  |  |  |  |  |  |  |
| COc1cc(/C=C2\C(=O)N(c3cccc(NC(C)=O)c3)C(c3ccccc3)S2(=O)=O)cc(OC)c1OC (stereo unspecified) | > 100 | > 100 | > 100 | > 100 | > 100 | > 100 |  | 44.5 | > 100 | > 100 |  |  |  |  |  |  |  |  |  |
| CN(C)CCCNc1ccnc2c([N+](=O)[O-])cccc12 | 37.1 |  | 61.6 |  | 28.5 |  |  |  |  | 36 |  |  |  |  |  |  |  |  |  |
| CN1C/C(=C\c2cccs2)C2=NN(c3ccccc3)C(c3cccs3)C2C1 (stereo unspecified) | > 100 | 96.3 | > 100 | > 100 | > 100 | > 100 | > 100 | 4.45 |  | > 100 |  |  |  |  |  |  |  |  |  |
| COc1ccc(-c2c(C#N)c(N)[nH]c(=S)c2C#N)cc1 | > 100 |  | > 100 | > 100 | > 100 | > 100 | 66.6 | 69.2 | > 100 | > 100 |  |  |  |  |  |  |  |  |  |
| O=C(O)c1ccc2c(O)c(O)ccc2c1 | > 100 | > 100 | 47.9 | 35.6 | 54.1 | > 78.8 | 70.9 |  | > 84.3 | 47.7 |  |  |  |  |  |  |  |  |  |

Reference: PubChem BioAssay (NCI)
